Laboratory results: patent US7452887B2, “Quinoline- and isoquinoline-based compounds exhibiting ATP-utilizing enzyme inhibitory activity, and compositions, and uses thereof” (Amphora Discovery Corporation, priority 2004, dated 2008)

Columns and labels:
PRAK = biological target: T1, PRAK (Homo sapiens, UniProt Q8IW41); test: HTS ATP-utilizing enzyme assay, off-chip mobility-shift (Caliper HTS 250); assay type: biochemical; settings: test compound 10 μM, kinase listed = active (greater than six-sigma from the mean activity of inactive compounds)
T1 sequence (Q8IW41 1-473): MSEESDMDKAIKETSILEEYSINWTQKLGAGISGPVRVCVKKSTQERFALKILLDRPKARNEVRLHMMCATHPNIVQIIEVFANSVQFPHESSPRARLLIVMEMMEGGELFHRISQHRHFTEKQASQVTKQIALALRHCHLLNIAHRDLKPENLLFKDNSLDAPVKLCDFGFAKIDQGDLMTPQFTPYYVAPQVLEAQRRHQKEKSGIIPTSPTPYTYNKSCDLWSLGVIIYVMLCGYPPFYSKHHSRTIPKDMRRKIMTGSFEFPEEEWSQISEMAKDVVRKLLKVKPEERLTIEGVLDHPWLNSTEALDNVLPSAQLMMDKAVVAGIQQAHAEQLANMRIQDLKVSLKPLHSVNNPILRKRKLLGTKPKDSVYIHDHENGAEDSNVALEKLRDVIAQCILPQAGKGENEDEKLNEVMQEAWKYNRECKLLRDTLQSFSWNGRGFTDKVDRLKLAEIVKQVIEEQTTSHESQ
How it was run: (§1)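 Inhibition is reported from a single 10 μM concentration. Kinase phosphorylates a peptide substrate over 2.5 hrs at 20° C. to 22° C. before EDTA termination. Potential hits are those beyond six-sigma statistical limits.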

DYRK2 = biological target: T2, DYRK2 (Homo sapiens, UniProt Q92630); test: as above; assay type: biochemical; settings: test compound 10 μM, kinase listed = active (greater than six-sigma from the mean activity of inactive compounds)
T2 sequence (Q92630 1-601): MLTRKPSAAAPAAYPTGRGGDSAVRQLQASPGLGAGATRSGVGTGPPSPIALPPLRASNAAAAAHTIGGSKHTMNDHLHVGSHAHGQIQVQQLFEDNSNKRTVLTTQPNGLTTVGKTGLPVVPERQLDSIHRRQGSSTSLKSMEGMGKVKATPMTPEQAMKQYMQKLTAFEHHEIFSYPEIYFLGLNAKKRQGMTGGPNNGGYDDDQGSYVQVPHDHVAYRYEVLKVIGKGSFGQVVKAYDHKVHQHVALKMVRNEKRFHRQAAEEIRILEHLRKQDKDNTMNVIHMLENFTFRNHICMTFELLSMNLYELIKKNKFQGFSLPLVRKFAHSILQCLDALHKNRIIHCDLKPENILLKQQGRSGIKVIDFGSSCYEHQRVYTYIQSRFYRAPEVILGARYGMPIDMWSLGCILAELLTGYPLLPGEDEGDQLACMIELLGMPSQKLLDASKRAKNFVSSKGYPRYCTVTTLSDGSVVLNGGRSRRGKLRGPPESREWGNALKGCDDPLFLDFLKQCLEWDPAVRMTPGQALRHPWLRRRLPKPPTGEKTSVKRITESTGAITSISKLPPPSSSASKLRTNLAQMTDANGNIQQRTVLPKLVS
How it was run: as §1

Row | Activity (PRAK) | Activity (DYRK2) | SMILES
1 | PRAK |  | CN1CCN(c2ccc(Nc3ccnc4ccc(-c5cccc6ccccc56)cc34)cc2)CC1 [N-(4-(4-methylpiperazin-1-yl)phenyl)-6-(naphthalen-1-yl)quinolin-4-amine]
2 | PRAK |  | c1ccc(-c2ccc3nccc(Nc4ccc(N5CCNCC5)cc4)c3c2)cc1 [6-phenyl-N-(4-(piperazin-1-yl)phenyl)quinolin-4-amine]
3 | PRAK | DYRK2 | CN1CCN(c2ccc(Nc3ccnc4ccc(-c5ccncc5)cc34)cc2)CC1 [N-(4-(4-methylpiperazin-1-yl)phenyl)-6-(pyridin-4-yl)quinolin-4-amine]
4 | PRAK | DYRK2 | Cc1ccccc1-c1ccc2nccc(Nc3ccc(N4CCN(C)CC4)cc3)c2c1 [N-(4-(4-methylpiperazin-1-yl)phenyl)-6-o-tolylquinolin-4-amine]
5 | PRAK | DYRK2 | CN1CCN(c2ccc(Nc3ccnc4ccc(-c5ccc6ccccc6c5)cc34)cc2)CC1 [N-(4-(4-methylpiperazin-1-yl)phenyl)-6-(naphthalen-2-yl)quinolin-4-amine]
6 | PRAK | DYRK2 | CN1CCN(c2ccc(Nc3ccnc4ccc(-c5ccc(F)cc5)cc34)cc2)CC1 [6-(4-fluorophenyl)-N-(4-(4-methylpiperazin-1-yl)phenyl)quinolin-4-amine]
7 |  | DYRK2 | COc1ccc(-c2ccc3nccc(N(C)c4ccc(N5CCN(C)CC5)cc4)c3c2)cc1 [6-(4-methoxyphenyl)-N-methyl-N-(4-(4-methylpiperazin-1-yl)phenyl)quinolin-4-amine]
8 | PRAK | DYRK2 | COc1ccc(-c2ccc3nccc(Nc4ccc(N5CCNCC5)cc4)c3c2)cc1 [6-(4-methoxyphenyl)-N-(4-(piperazin-1-yl)phenyl)quinolin-4-amine]
9 | PRAK | DYRK2 | CN1CCN(c2ccc(Nc3ccnc4ccc(-c5ccc(O)cc5)cc34)cc2)CC1 [4-(4-(4-(4-methylpiperazin-1-yl)phenylamino)quinolin-6-yl)phenol]
